US20110269759A1, “PYRIMIDINE COMPOUNDS AS DELTA OPIOID RECEPTOR MODULATORS” (priority 2009, published 2011)
Like-named read-outs stand apart in the source and are kept apart here. Values belong to the compound of their own block, whether it stands above or below them.

Columns and labels:
[1] = molecular target: T1, Mu Opioid Receptor (Rattus norvegicus, UniProt P33535); test: Rat brain mu opioid receptor binding assay ([3H]DAMGO)
T1 construct: the forebrains were homogenized in Tris buffer in a Teflon®-glass homogenizer; from tissue; host or cells: forebrain of male Wistar rats, particulate membrane preparation
T1 sequence (P33535 whole entry): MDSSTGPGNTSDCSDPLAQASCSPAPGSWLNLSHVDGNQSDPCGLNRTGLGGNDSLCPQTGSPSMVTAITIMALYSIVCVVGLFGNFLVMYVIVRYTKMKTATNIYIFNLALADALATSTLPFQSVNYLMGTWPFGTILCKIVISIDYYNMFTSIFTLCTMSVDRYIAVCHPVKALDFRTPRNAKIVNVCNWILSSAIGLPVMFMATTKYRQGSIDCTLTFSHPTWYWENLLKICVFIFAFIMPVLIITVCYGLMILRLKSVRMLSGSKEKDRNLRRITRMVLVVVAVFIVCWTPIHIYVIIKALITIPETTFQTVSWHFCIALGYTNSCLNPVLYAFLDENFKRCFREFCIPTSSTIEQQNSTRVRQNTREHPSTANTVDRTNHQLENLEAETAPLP

[2] = test system: mice; test: Mouse Graded Abdominal Irritant Test (GrAIT); format: in vivo; conditions: 10% Solutol, 30 min pretreatment
Protocol: Test compound or vehicle was administered s.c. or p.o. to mice. Following the pretreatment time, an i.p. injection of 0.6% of acetic acid in 0.5 mL was administered. Five min after acetic acid administration, mice were placed into clear chambers and were continuously observed for 5 min. Behavioral responses including twisting and elongation of the body that extended through the hindlimbs were counted and averaged for the group of animals over the observation period.

[3] = molecular target: T2, Delta Opioid Receptor (Rattus norvegicus, UniProt P33533); test: Rat brain delta opioid receptor binding assay ([3H]DPDPE or [3H]naltrindole)
T2 construct: the forebrains were homogenized in Tris buffer in a Teflon®-glass homogenizer; from tissue; host or cells: forebrain of male Wistar rats, particulate membrane preparation
T2 sequence (P33533 whole entry): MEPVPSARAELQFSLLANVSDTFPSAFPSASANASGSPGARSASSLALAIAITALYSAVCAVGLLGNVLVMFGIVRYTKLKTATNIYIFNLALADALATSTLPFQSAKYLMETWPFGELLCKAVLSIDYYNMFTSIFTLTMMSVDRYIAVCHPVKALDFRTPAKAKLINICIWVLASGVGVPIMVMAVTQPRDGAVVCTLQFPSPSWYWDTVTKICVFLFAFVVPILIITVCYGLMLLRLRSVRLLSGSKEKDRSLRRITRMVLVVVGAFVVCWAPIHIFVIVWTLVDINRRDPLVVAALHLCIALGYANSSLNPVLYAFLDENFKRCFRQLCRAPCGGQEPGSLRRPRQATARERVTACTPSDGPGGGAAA

[4] = molecular target: T3, δ-opioid receptor (Mus musculus, UniProt P32300); test: [35S]GTPγS δ-opioid receptor functional assay (EC50, relative efficacy, % inhibition); format: biochemical; design: NG108-15 cell membranes were purchased from Applied Cell Sciences (Rockville, Md.); conditions: for inhibition at 10 µM: read-out: GTPγS δ-opioid receptor % Inh @10 μM
T3 sequence (P32300 whole entry): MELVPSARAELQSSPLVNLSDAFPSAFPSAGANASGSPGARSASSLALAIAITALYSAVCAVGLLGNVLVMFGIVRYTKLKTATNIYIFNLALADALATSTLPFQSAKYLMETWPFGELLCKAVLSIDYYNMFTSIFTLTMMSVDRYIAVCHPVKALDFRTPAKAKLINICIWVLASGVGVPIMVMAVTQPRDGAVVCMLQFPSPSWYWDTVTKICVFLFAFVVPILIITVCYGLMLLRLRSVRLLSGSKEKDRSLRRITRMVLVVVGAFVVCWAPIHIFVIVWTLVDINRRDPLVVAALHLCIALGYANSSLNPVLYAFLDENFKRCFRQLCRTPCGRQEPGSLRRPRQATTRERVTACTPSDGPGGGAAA

[5] = molecular target: T3, δ-opioid receptor; test: [35S]GTPγS binding assay in NG108-15 cell membranes (delta opioid functional assay), 200 nM screen; format: biochemical; design: NG108-15 cell membranes were purchased from Applied Cell Sciences (Rockville, Md.); host or cells: NG108-15 cell membranes (purchased); conditions: 200 nM compound, relative to calculated max of SNC80 dose response
[6] = molecular target: T4, Delta Opioid Receptor (Mus musculus, UniProt P32300); test: NG108-15, 24-well delta opioid receptor binding assay ([3H]naltrindole)
T4 construct: NG108-15 cell membranes were purchased from Applied Cell Sciences (Rockville, Md.); host or cells: NG108-15 cell membranes (purchased)
T4 sequence (P32300 whole entry): as above

[7] = NG108-15 cell membranes, ~0.2 nM [3H]naltrindole, read-out: δ-binding NG108 cell membrane Ki

SMILES: CCN(CC)C(=O)/C=C/c1ccc(NC[C@@H]2CCCN2)c(Oc2ccc(OC)cc2)c1 [Cpd 1, (2E)-N,N-Diethyl-3-[3-(4-methoxyphenoxy)-4-{[(2S)-pyrrolidin-2-ylmethyl]amino}phenyl]prop-2-enamide]
Ki [1]: 3370 nM
# abdominal stretches (cpd) ([2]; 30 mg/kg s.c.): 10.9
Ki [3]: 6.08 nM
EC50 [4]: 109 nM
GTPγS δ-opioid receptor Rel Efficacy [4]: 0.8328
inhibition at 10 µM [4]: 2.26%

SMILES: CCN(CC)C(=O)c1ccc(NC[C@@H]2CCCN2)c(Oc2ccc(OC)cc2)c1 [Cpd 10]
Ki [1]: 936 nM
# abdominal stretches (cpd) ([2]; 30 mg/kg p.o.): 19
# abdominal stretches (cpd) ([2]; 30 mg/kg s.c.): 11
# abdominal stretches (cpd) ([2]; 100 mg/kg p.o.): 17.9
# abdominal stretches (cpd) ([2]; 300 mg/kg p.o.): 21.2
Ki ([3]; rat forebrain membranes, 0.25 nM [3H]naltrindole, read-out: δ-binding (Naltrindole ligand) Ki): 936 nM

SMILES: COc1ccc(Oc2cc(-c3cncc(C#N)c3)ccc2NC[C@@H]2C[C@@H](F)CN2)cc1 [Cpd 24, (2S,4R)-5-[4-[(4-Fluoro-pyrrolidin-2-ylmethyl)-amino]-3-(4-methoxy-phenoxy)-phenyl]-nicotinonitrile]
GTPγS δ-RelEfficacy @200 nM [5]: 1.01
EC50 [4]: 46.1 nM
GTPγS δ-opioid receptor Rel Efficacy [4]: 1.0158

SMILES: COc1ccc(Oc2cc(-c3cncc(F)c3)ccc2NC[C@@H]2C[C@@H](F)CN2)cc1 [Cpd 25]
GTPγS δ-RelEfficacy @200 nM [5]: 0.78
EC50 [4]: 92.4 nM
GTPγS δ-opioid receptor Rel Efficacy [4]: 1.0217

SMILES: COc1ccc(Oc2cc(-c3cncc(SC)c3)ccc2NC[C@@H]2C[C@@H](F)CN2)cc1 [Cpd 26]
GTPγS δ-RelEfficacy @200 nM [5]: 0.7
EC50 [4]: 187 nM
GTPγS δ-opioid receptor Rel Efficacy [4]: 1.0716

SMILES: COc1ccc(Oc2cc(-c3cccnc3)ccc2NC[C@@H]2CCCN2)cc1 [Cpd 39]
Ki [1]: 3110 nM
Ki [6]: 1.65 nM
Ki [3]: 22.1 nM
EC50 [4]: 111 nM
GTPγS δ-opioid receptor Rel Efficacy [4]: 0.9245
inhibition at 10 µM [4]: 13.4%

Ki [6, 7]: 1.39 nM
GTPγS δ-RelEfficacy @200 nM [5]: 0.39
SMILES: COc1ccc(Oc2cc(-c3cncnc3)ccc2NC[C@@H]2CCCN2)cc1 [Cpd 42]

SMILES: COc1ccc(Oc2cc(-c3cncc(F)c3)ccc2NC[C@@H]2CCCN2)cc1 [Cpd 43]
Ki [6]: 0.76 nM
GTPγS δ-RelEfficacy @200 nM [5]: 0.43
EC50 [4]: 218 nM
GTPγS δ-opioid receptor Rel Efficacy [4]: 1.0908

Ki [6, 7]: 0.436 nM
GTPγS δ-RelEfficacy @200 nM [5]: 0.45
GTPγS δ-opioid receptor Rel Efficacy [4]: 1.1554
EC50 ([4]; read-out: GTPγS δ-opioid receptor EC50): 118 nM
SMILES: COc1ccc(Oc2cc(-c3cncc(C#N)c3)ccc2NC[C@@H]2CCCN2)cc1 [Cpd 44]

Ki [6, 7]: 77 nM
SMILES: CCN(C[C@@H]1CCCN1)c1ccc(-c2cncnc2)cc1Oc1ccc(OC)cc1 [Cpd 51]

SMILES: CCN(C[C@@H]1CCCN1)c1ccc(-c2cncc(C#N)c2)cc1Oc1ccc(OC)cc1 [Cpd 52]
Ki [6]: 9.33 nM
